Patent US20060069132A1, “Azolecarboxamide herbicides” (priority 2004, published 2006)

Tests used:
[1] = tested on: giant foxtail; test: Test C pre-/postemergence herbicide test; type: in vivo, Setaria faberi
Method in brief: (§1)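 Preemergence: seeds planted and treated with compound in non-phytotoxic solvent with surfactant; postemergence: plants at 2 to 18 cm (1- to 4-leaf stage) sprayed likewise. Kept in greenhouse 12 to 14 days, then visually rated against controls, 0 (no effect) to 100 (complete control).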

[2] = tested on: pigweed; test: Test C pre-/postemergence herbicide test; type: in vivo, Amaranthus retroflexus
Method in brief: as §1

[3] = tested on: soybean; test: Test C pre-/postemergence herbicide test; type: in vivo, Glycine max
Method in brief: as §1

[4] = tested on: bermudagrass; test: Test C pre-/postemergence herbicide test; type: in vivo, Cynodon dactylon; details: for Bermudagrass plant response rating: 500 g ai/ha
Method in brief: as §1

[5] = tested on: yellow nutsedge; test: Test C pre-/postemergence herbicide test; type: in vivo, Cyperus esculentus
Method in brief: as §1

[6] = tested on: large crabgrass; test: Test C pre-/postemergence herbicide test; type: in vivo, Digitaria sanguinalis
Method in brief: as §1

[7] = tested on: giant foxtail; test: Test A pre-/postemergence herbicide test; type: in vivo, Setaria faberi
Method in brief: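 Sandy loam soil given preemergence directed spray; plants at 2 to 10 cm, one- to two-leaf stage, sprayed to runoff postemergence, compounds in non-phytotoxic solvent with surfactant. Injury rated visually versus untreated controls after about ten greenhouse days, 0 (no effect) to 100 (complete control); dash means not tested.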

[8] = tested on: common ragweed; test: Test C pre-/postemergence herbicide test; type: in vivo, Ambrosia elatior; design: key to Plant response rating, Ragweed: 0 = no effect, 100 = complete control
Method in brief: as §1

[9] = tested on: morningglory; test: Test C pre-/postemergence herbicide test; type: in vivo, Ipomoea coccinea; design: key to Plant response rating, Morningglory: 0 = no effect, 100 = complete control
Method in brief: as §1

[10] = tested on: kochia; test: Test C pre-/postemergence herbicide test; type: in vivo, Kochia scoparia
Method in brief: as §1

[11] = 62 g ai/ha, preemergence, scale 0 to 100
[12] = 125 g ai/ha, scale 0 (no effect) to 100 (complete control), visual, 12 to 14 days, preemergence
[13] = 250 g ai/ha, scale 0-100, preemergence
[14] = 500 g ai/ha, scale 0 to 100 (0 no effect, 100 complete control), visual, 12 to 14 days, preemergence
[15] = Postemergence, 500 g ai/ha, scale 0 to 100
[16] = Postemergence, 250 g ai/ha, scale 0 to 100, 0 no effect, 100 complete control
[17] = postemergence, 125 g ai/ha, scale 0 to 100
[18] = postemergence, 62 g ai/ha, scale 0 to 100
[19] = Postemergence, 500 g ai/ha, 0 to 100 scale, 0 no effect, 100 complete control
[20] = Postemergence, 2000 g ai/ha, 0 to 100 scale, 0 no effect, 100 complete control
[21] = Preemergence, 2000 g ai/ha, visual rating, 0 to 100 scale (0 no effect, 100 complete control)
[22] = preemergence, 500 g ai/ha, visual injury, 0 to 100 scale (0 no effect, 100 complete control)
[23] = Postemergence, 500 g ai/ha, scale 0 to 100, 0 no effect, 100 complete control

C=CCNC(=O)c1cccc(NC(=O)c2cc(C(C)(C)C)nn2C)n1 [Compound 318]
Plant response rating, Foxtail, Giant [1, 11]: 0
Plant response rating, Foxtail, Giant [1, 12]: 10
Plant response rating, Foxtail, Giant [1, 13]: 50
Plant response rating, Foxtail, Giant [1, 14]: 80
Foxtail, Giant plant response rating [1, 15]: 10
Plant response rating, Foxtail, Giant [1, 16]: 5
Plant response rating, Foxtail, Giant [1, 17]: 0
Plant response rating, Foxtail, Giant [1, 18]: 0
Plant response rating, Pigweed [2, 11]: 80
Plant response rating, Pigweed [2, 12]: 95
Plant response rating, Pigweed [2, 13]: 100
Plant response rating, Pigweed [2, 14]: 100
Pigweed plant response rating [2, 15]: 100
Plant response rating, Pigweed [2, 16]: 100
Plant response rating, Pigweed [2, 17]: 100
Plant response rating, Pigweed [2, 18]: 100
Plant response rating, Soybean [3, 11]: 0
Plant response rating, Soybean [3, 13]: 10
Plant response rating, Soybean [3, 14]: 40
Soybean plant response rating [3, 15]: 90
Plant response rating, Soybean [3, 16]: 80
Plant response rating, Soybean [3, 17]: 70
Plant response rating, Soybean [3, 18]: 65
Plant response rating, Bermudagrass ([4]; 62 g ai/ha, preemergence, scale 0 to 100, 0 no effect, 100 complete control): 10
Plant response rating, Bermudagrass [4, 12]: 70
Plant response rating, Bermudagrass [4, 13]: 90
Bermudagrass plant response rating ([4]; Postemergence, scale 0 to 100): 80
Bermudagrass plant response rating ([4]; Preemergence, scale 0 to 100, 0 no effect, 100 complete control): 95
Plant response rating, Nutsedge, Yellow [5, 11]: 0
Plant response rating, Nutsedge, Yellow [5, 12]: 0
Plant response rating, Nutsedge, Yellow [5, 13]: 0
Plant response rating, Nutsedge, Yellow [5, 14]: 0
Nutsedge, Yellow plant response rating [5, 15]: 0
Plant response rating, Nutsedge, Yellow [5, 16]: 0
Plant response rating, Nutsedge, Yellow [5, 17]: 0
Plant response rating, Nutsedge, Yellow [5, 18]: 0
Plant response rating, Crabgrass, Large [6, 12]: 50
Plant response rating, Crabgrass, Large [6, 13]: 60
Plant response rating, Crabgrass, Large [6, 14]: 100
Crabgrass, Large plant response rating [6, 15]: 50
Plant response rating, Crabgrass, Large [6, 16]: 30
Plant response rating, Crabgrass, Large [6, 17]: 0
Plant response rating, Crabgrass, Large [6, 18]: 0
Foxtail, Giant plant response rating [7, 19]: 50
Plant response rating, Foxtail, Giant [7, 20]: 90
Foxtail, Giant plant response rating [7, 21]: 85
Foxtail, Giant plant response rating [7, 22]: 40
Plant response rating, Ragweed [8, 11]: 0
Plant response rating, Ragweed [8, 13]: 70
Plant response rating, Ragweed [8, 14]: 70
Ragweed plant response rating [8, 15]: 0
Plant response rating, Ragweed [8, 16]: 0
Plant response rating, Ragweed [8, 17]: 0
Plant response rating, Ragweed [8, 18]: 0
Plant response rating, Morningglory [9, 11]: 0
Plant response rating, Morningglory [9, 12]: 0
Plant response rating, Morningglory [9, 13]: 0
Plant response rating, Morningglory [9, 14]: 85
Morningglory plant response rating [9, 15]: 0
Plant response rating, Morningglory [9, 16]: 0
Plant response rating, Morningglory [9, 17]: 0
Plant response rating, Morningglory [9, 18]: 0
Plant response rating, Kochia [10, 11]: 10
Plant response rating, Kochia [10, 12]: 60
Plant response rating, Kochia [10, 13]: 85
Plant response rating, Kochia [10, 14]: 100
Kochia plant response rating [10, 15]: 60
Plant response rating, Kochia [10, 16]: 60
Plant response rating, Kochia [10, 17]: 10
Plant response rating, Kochia [10, 18]: 0

CCn1nc(C(C)(C)C)cc1C(=O)Nc1cc(OC(F)(F)F)ccc1F [Compound 338]
Plant response rating, Foxtail, Giant [1, 16]: 10
Plant response rating, Foxtail, Giant [1, 23]: 10
Plant response rating, Foxtail, Giant [1, 17]: 5
Plant response rating, Foxtail, Giant [1, 18]: 5
Plant response rating, Pigweed [2, 16]: 80
Plant response rating, Pigweed [2, 23]: 80
Plant response rating, Pigweed [2, 17]: 5
Plant response rating, Pigweed [2, 18]: 0
Plant response rating, Soybean [3, 16]: 35
Plant response rating, Soybean [3, 23]: 60
Plant response rating, Soybean [3, 17]: 30
Plant response rating, Soybean [3, 18]: 10
Bermudagrass plant response rating ([4]; Postemergence, scale 0 to 100): 5
Plant response rating, Bermudagrass [4, 16]: 0
Plant response rating, Bermudagrass [4, 17]: 0
Plant response rating, Bermudagrass [4, 18]: 0
Plant response rating, Nutsedge, Yellow [5, 16]: 0
Plant response rating, Nutsedge, Yellow [5, 23]: 0
Plant response rating, Nutsedge, Yellow [5, 17]: 0
Plant response rating, Nutsedge, Yellow [5, 18]: 0
Plant response rating, Crabgrass, Large [6, 16]: 10
Plant response rating, Crabgrass, Large [6, 23]: 15
Plant response rating, Crabgrass, Large [6, 17]: 5
Plant response rating, Crabgrass, Large [6, 18]: 0
Foxtail, Giant plant response rating [7, 19]: 20
Plant response rating, Foxtail, Giant [7, 20]: 30
Foxtail, Giant plant response rating [7, 21]: 100
Foxtail, Giant plant response rating [7, 22]: 80
Plant response rating, Ragweed [8, 16]: 5
Plant response rating, Ragweed [8, 23]: 10
Plant response rating, Ragweed [8, 17]: 5
Plant response rating, Ragweed [8, 18]: 0
Plant response rating, Morningglory [9, 16]: 40
Plant response rating, Morningglory [9, 23]: 50
Plant response rating, Morningglory [9, 17]: 0
Plant response rating, Morningglory [9, 18]: 0
Plant response rating, Kochia [10, 16]: 90
Plant response rating, Kochia [10, 23]: 90
Plant response rating, Kochia [10, 17]: 60
Plant response rating, Kochia [10, 18]: 50
